How the values were obtained:
[1] = tested on: Pseudoperonospora cubensis; experiment: Test on protective effect against Pseudoperonospora cubensis (cucumber seedlings); type: in vivo; details: 500 ppm active ingredient sprayed on cucumber (Sagami-Hanziro) seedlings before inoculation, 6 days after; for pest or weed control at 500 ppm: Pseudoperonospora cubensis, 144 h, read-out: control level
Protocol: 4 cucumber seeds (variety: Sagami-Hanziro) were sown in each plastic cup having a diameter of 5.5 cm and allowed to grow for 7 days in a greenhouse. […] After air drying, the plants were inoculated by spraying with a conidia suspension of Pseudoperonospora cubensis. The inoculated plants were immediately put in a moist chamber at 20° C. (relative humidity of 100%) for 24 hours. Thereafter, the plants were transferred to a greenhouse. 6 days after, disease development indexes of cotyledons for total pots were examined according to the standard described below, a disease severity was determined using an expression shown below and a control level (%) was calculated using another expression shown below. The standard for disease development index is as follows: [table] Hereinbelow, an expression to calculate a disease severity (%) is shown. [formula] Hereinbelow, an expression to calculate a control level (%) is shown. [formula]

Septoria nodorum = experiment: Test on protective effect against Septoria nodorum (wheat); type: in vivo; details: 500 ppm active ingredient sprayed on wheat (Norin No. 61) at two-leaf stage before inoculation, 9 days after; for pest or weed control at 500 ppm: Parastagonospora nodorum, 216 h, read-out: control level
Protocol: 10 wheat seeds (variety: Norin No. 61) were sown in each plastic cup having a diameter of 5.5 cm and allowed to grow for 9 days in a greenhouse. […] After air drying, the plants were inoculated by spraying with a pycnidiospore suspension of Septoria nodorum. The inoculated plants were immediately put in a moist chamber at 25° C. (relative humidity of 100%) for 48 hours. Thereafter, the plants were transferred to a greenhouse. 9 days after, disease development indexes of first leaves for total pots were examined according to the standard in Test Example 3, a disease severity was determined using the expression in Test Example 3 and a control level (%) was calculated using the expression in Test Example 3.

Pyricularia oryzae = experiment: whole plant or invertebrate; type: in vivo; details: for pest or weed control at 500 ppm: Pyricularia oryzae, 120 h, read-out: control level
Erysiphe graminis = experiment: Test on protective effect against Erysiphe graminis (wheat); type: in vivo; details: Blumeria graminis, 168 h; 500 ppm active ingredient sprayed on wheat (Norin No. 61) at 1.5 to 2-leaf stage before inoculation; 7 days after; read-out: control level
Protocol: 10 wheat seeds (variety: Norin No. 61) were sown in each plastic cup having a diameter of 5.5 cm and allowed to grow for 8 days in a greenhouse. […] After air drying, the plants were inoculated by equally sprinkling with conidia of Erysiphe graminis by using a midget duster or the like for innoculation and then incubated in a greenhouse until a development of disease. 7 days after, disease development indexes of first leaves for total pots were examined according to the standard in Test Example 3, a disease severity was determined using the expression in Test Example 3 and a control level (%) was calculated using the expression in Test Example 3.

Rhizoctonia solani = experiment: Test on protective effect against Rhizoctonia solani (rice pot test); type: in vivo; details: 500 ppm active ingredient sprayed on rice (Kinmaze) at 2.5 to 3-leaf stage before inoculation, 5 days after inoculation; for pest or weed control at 500 ppm: Rhizoctonia solani, 120 h, read-out: control level
Protocol: 15 rice seeds (variety: Kinmaze) were sown in each clay pot having a diameter of 7.5 cm and allowed to grow for 3 weeks in a greenhouse. […] After air drying, the plants were inoculated by uniformly covering the surface of the soil with Rhizoctonia solani cultured in a rice-husk bran medium and incubated in a moist chamber at 30° C. […] The standard for disease development index is as follows: [table] Hereinbelow, an expression to calculate a control level (%) is shown. [formula]

Botrytis cinerea = experiment: Test on protective effect against Botrytis cinerea (cucumber seedlings); type: in vivo; details: 500 ppm active ingredient sprayed on cucumber (Sagami-Hanziro) seedlings before inoculation; 2 days after
Protocol: 4 cucumber seeds (variety: Sagami-Hanziro) were sown in each plastic cup having a diameter of 5.5 cm and allowed to grow for 7 days in a greenhouse. […] After air drying, a sterilized paper disc was immersed in a conidia suspension of Botrytis cinerea and laid on an upper side of a cucumber cotyledon for innoculation and thereafter cared in a moist chamber at 20° C.

SMILES | pest or weed control at 500 ppm [1] [%] | pest or weed control at 500 ppm (Septoria nodorum) [%] | melting point [°C] | pest or weed control at 500 ppm (Pyricularia oryzae) [%] | pest or weed control at 500 ppm (Erysiphe graminis) [%] | pest or weed control at 500 ppm (Rhizoctonia solani) [%] | other results
CCc1nc(-n2cccn2)nc(NCC(F)(F)F)c1C(C)CC (centres unmarked) [Compound No. 0385, 5-sec-butyl-6-ethyl-2-(1H-pyrazol-1-yl)-N-(2,2,2-trifluoroethyl)pyrimidine-4-amine] | 100 | 100 | 89 to 90 | 100 | 100 | – | –
CCC(C)c1c(C)nc(-n2cccn2)nc1N1CCC(C)CC1 (centres unmarked) [Compound No. 1225, 5-sec-butyl-4-methyl-6-(4-methylpiperidin-1-yl)-2-(1H-pyrazol-1-yl)pyrimidine] | 100 | 100 | – | – | 100 | – | –
CCC(C)c1c(NCC(F)(F)F)nc(-n2cccn2)nc1S(C)(=O)=O (centres unmarked) [Compound No. 0363, 5-sec-butyl-6-methylsulfonyl-2-(1H-pyrazol-1-yl)-N-(2,2,2-trifluoroethyl)pyrimidine-4-amine] | – | – | 52 to 55 | – | – | – | –
CCC(C)c1c(NCC(F)(F)F)nc(-n2cccn2)nc1OC(F)F (centres unmarked) [Compound No. 0358, 5-sec-butyl-6-difluoromethoxy-2-(1H-pyrazol-1-yl)-N-(2,2,2-trifluoroethyl)pyrimidine-4-amine] | 100 | – | 94 to 95 | 100 | 100 | – | –
CCC(C)c1c(NC(C)C)nc(-n2cccn2)nc1C(F)(F)F (centres unmarked) [Compound No. 0240, 5-sec-butyl-N-(1-methylethyl)-2-(1H-pyrazol-1-yl)-6-trifluoromethylpyrimidine-4-amine] | – | – | 85 to 87 | 100 | 100 | – | –
Clc1nc(-n2cccn2)nc(N2CCCC2)c1Cc1ccccc1 [Comparative Compound 1, reference compound] | – | – | – | – | – | – | control level [1]: did not exhibit a control effect; control level (Septoria nodorum): did not exhibit a control effect; control level (Pyricularia oryzae; 500 ppm active ingredient sprayed on rice (Aichi Asahi) at four-leaf stage before inoculation, lesions counted 5 days after inoculation): did not exhibit a control effect; control level (Rhizoctonia solani): did not exhibit a control effect; control level (Botrytis cinerea): did not exhibit a control effect
CCC(C)c1c(NCC(F)(F)F)nc(-n2cccn2)nc1C1CC1 (centres unmarked) [Compound No. 0387, 5-sec-butyl-6-cyclopropyl-2-(1H-pyrazol-1-yl)-N-(2,2,2-trifluoroethyl)pyrimidine-4-amine] | 100 | – | 84 to 85 | 100 | 100 | 100 | –
CCC(C)c1c(C#N)nc(-n2cccn2)nc1N1CCC(C)CC1 (centres unmarked) [Compound No. 1215, 5-sec-butyl-6-(4-methylpiperidin-1-yl)-2-(1H-pyrazol-1-yl)pyrimidine-4-carbonitrile] | 100 | – | – | – | 100 | 100 | –
CCOC(=O)c1cnn(-c2nc(Cl)c(C(C)CC)c(NCC(F)(F)F)n2)c1N (centres unmarked) [Compound No. 0601, ethyl 5-amino-1-[5-sec-butyl-4-chloro-6-(2,2,2-trifluoroethylamino)pyrimidin-2-yl]-1H-pyrazol-4-carboxylate] | – | – | 173 to 174 | – | – | – | –
Cc1cc(C)n(-c2nc(C)c(C)c(NN)n2)n1 [Comparative Compound 2, reference compound] | – | 75 | – | – | – | 50 | control level (Botrytis cinerea): 25%
CCC(C)c1c(SC)nc(-n2cccn2)nc1N1CCC(C)CC1 (centres unmarked) [Compound No. 1204, 5-sec-butyl-6-(4-methylpiperidin-1-yl)-4-methylthio-2-(1H-pyrazol-1-yl)pyrimidine] | – | – | 69 to 71 | – | 100 | 100 | –
CCC(C)c1c(NCC(F)(F)F)nc(-n2cccn2)nc1SC (centres unmarked) [Compound No. 0361, 5-sec-butyl-6-methylthio-2-(1H-pyrazol-1-yl)-N-(2,2,2-trifluoroethyl)pyrimidine-4-amine] | 100 | – | – | 100 | 100 | 100 | –
CCC(C)c1c(Cl)nc(-n2cccn2)nc1N1CCC(C)CC1 (centres unmarked) [Compound No. 1192, 5-sec-butyl-4-chloro-6-(4-methylpiperidin-1-yl)-2-(1H-pyrazol-1-yl)pyrimidine] | – | – | – | – | 100 | 100 | –
CCC(C)c1c(Cl)nc(-n2cccn2)nc1NCC(F)(F)F (centres unmarked) [Compound No. 0350, 5-sec-butyl-6-chloro-2-(1H-pyrazol-1-yl)-N-(2,2,2-trifluoroethyl)pyrimidine-4-amine] | 100 | 100 | 137 to 139 | 100 | 100 | 100 | –
CCC(C)c1c(NCC(F)(F)F)nc(-n2cccn2)nc1N(CC)CC (centres unmarked) [Compound No. 0371, 5-sec-butyl-N^4, N^4-diethyl-2-(1H-pyrazol-1-yl)-N^6-(2,2,2-trifluoroethyl)pyrimidine-4,6-diamine] | 100 | – | – | – | 100 | – | –
CCC(C)c1c(Cl)nc(-n2cc(Cl)cn2)nc1NCC(F)(F)F (centres unmarked) [Compound No. 0434, 5-sec-butyl-6-chloro-2-(4-chloro-1H-pyrazol-1-yl)-N-(2,2,2-trifluoroethyl)pyrimidine-4-amine] | – | – | 173 to 174 | 100 | 100 | 100 | –
CCC(C)c1c(Br)nc(-n2cccn2)nc1NCC(F)(F)F (centres unmarked) [Compound No. 0351, 6-bromo-5-sec-butyl-2-(1H-pyrazol-1-yl)-N-(2,2,2-trifluoroethyl)pyrimidine-4-amine] | 100 | 100 | 136 to 139 | 100 | 100 | 100 | –
CCC(C)c1cnc(-n2cccn2)nc1N1CCC(C)CC1 (centres unmarked) [Compound No. 1190, 5-sec-butyl-4-(4-methylpiperidin-1-yl)-2-(1H-pyrazol-1-yl)pyrimidine] | 100 | 100 | – | – | 100 | 100 | –
CCC(C)c1c(F)nc(-n2cccn2)nc1NCC(F)(F)F (centres unmarked) [Compound No. 0349, 5-sec-butyl-6-fluoro-2-(1H-pyrazol-1-yl)-N-(2,2,2-trifluoroethyl)pyrimidine-4-amine] | 100 | 100 | 132 to 134 | 100 | 100 | 100 | –
CCC(C)c1c(O)nc(-n2cccn2)nc1NCC(F)(F)F (centres unmarked) [Compound No. 0353, 5-sec-butyl-2-(1H-pyrazol-1-yl)-6-(2,2,2-trifluoroethylamino)pyrimidin-4-ol] | – | – | 141 to 143 | – | – | – | –

Source: patent publication US20090042917A1, “Aminopyrimidine Derivative and Plant Disease Control Agent for Agricultural or Horticultural Use” (KUMIAI CHEMICAL INDUSTRY CO., LTD., priority 2006, published 2009)
